This assay deals with PLK1 (Homo sapiens, UniProt P53350). The assay is described as follows: In vitro PLK1 ELISA assay (biochemical). More on the design: purchased Cell Signalling 7728. The procedure:
Inhibition of PLK1 was measured by quantifying phosphorylation of PLK1 substrates using chemiluminescent and fluorogenic probes. The protocols for these assays are provided below.
In Vitro PLK1 ELISA Assay
1. Preparation of Assay Plates.
Costar 96-well black or white solid flat high binding plates (Fisher Scientific, Catalog No. 07-200-591) were coated with Neutravidin (Pierce, Catalog No. 31000) using the following protocol. A 0.01 mg/mL solution of Neutravidin in 1× Phosphate Buffered Saline (“PBS”, Cellgro/Mediatech, Catalog No. 21-040-CV) was added to each well (100 μL/well) and was incubated for 18-24 hours at 4° C. The plates were then washed with 1× Phosphate Buffer Saline—Tween (“PBST”, Calbiochem, Catalog No. 524653) buffer using a plate washer. The plates were treated with bovine serum albumin (“BSA”, Sigma, Catalog No. A7906) to block non-specific binding sites, by adding a 2% BSA solution in 1×PBST buffer to each well (100 μL/well) and incubating the plates for 1 hour at room temperature. The plates were then washed with 1×PBST buffer using a plate washer.
2. PLK1-Catalyzed Phosphorylation Reaction
An aqueous buffer solution A having the following composition was prepared:
20 mM HEPES (Cellgro/Mediatech, Catalog No. 25-060Ci), pH 7.2;
5 mM MgCl2 (Sigma, Catalog No. M2393);
2 mM MnCl2.4H2O (EM Biosciences, Catalog No. MX0185-2);
1 mM Dithiothreitol (“DTT”, Fluka, Catalog No. B4184).
Next, the substrate solution B was prepared by adding 2.6 μL of 10 mM ATP (Sigma, Catalog No. A7699) and 6.4 μL of the 1 mM PLK1 substrate, CHK2-derived peptide Biotin-SSLETVSTQELYSIP (custom synthesized at Anaspec) SEQ ID: No. 1, to 4691 μL of the buffer solution A. The concentration of the ATP in solution B is 5.44 μM (1.36×); the concentration of the PLK1 substrate in solution B is 1.36 μM (1.36×).
Compound solutions C of varying concentrations for each compound were prepared by dissolving each compound in dimethylsulfoxide (DMSO, Sigma, Catalog No. D2650) to varying concentrations, followed by adding 2 μL of each solution to 38 μL of the buffer solution A, thereby forming 10× compound solutions in 5% DMSO.
A PLK1 solution D was prepared by adding 8.4 μL of 100 μg/mL PLK1 (Cell Signalling, Catalog No. 7728) to 1392 μL of the buffer solution A, thereby forming 0.6 μg/mL (6×) PLK1 solution.
The aqueous 1.36× substrate solution B was added to each well (44 μL/well) resulting in binding of the substrate to the plate via biotin/neutravidin interaction. Then 10× compound solutions C for each tested compound at each tested concentration were added to each well (6 μL/well). Next, 6×PLK1 solution D was added to each well (10 μL/well).
The final concentrations of tested compounds in each well were 10 μM, 3.3 μM, 1.1 μM, 0.36 μM, 0.12 μM, 0.04 μM, 0.014 μM, and 0.005 μM.
The obtained reaction mixtures were incubated in the wells for 45 minutes at room temperature, allowing PLK1-catalyzed phosphorylation of the substrate to proceed. The plates were then washed with 1×PBST solution using a plate washer, such that the bound phosphorylated or unphosphorylated substrate remains attached to the wells upon washing.
The washed plates were developed by treating the plates with a primary antibody that is specific for the phosphorylated substrate, followed by treatment with a secondary antibody that is specific for the primary antibody, and that is capable of catalyzing a reaction that results in a chemiluminescent readout. The chemiluminescent readout was used to quantify the substrate phosphorylation, and, consequently, to determine IC50 values for PLK1 inhibition, and was measured using a luminometer (Perkin Elmer/Wallac plate reader). The plate development protocol is described below.
A mixed antibody solution E was prepared by adding 1 μL of the primary antibody, rabbit p-CHK2(T68) (Rockland, Catalog No. 401280), and 1 μL of the secondary antibody, HRP-goat anti-rabbit IgG (Jackson Immunoresearch Catalog No. 111-035-003) to 10000 μL of 0.1% BSA in 1×PBST buffer. […]
On the technique in general: In an ELISA, binding on a coated surface is turned into a signal by an enzyme label.

[1] abbreviates: ELISA, CHK2-derived peptide substrate, read-out: PLK1 IC50 (μM) biochemical assay.
Setting [2] is: read-out: IC50 in biochemical in vitro PLK1 ELISA assay (less than 10 μM).
The mark [3] stands for this setting: read-out: IC50 in biochemical ELISA assay (less than 0.01 μM).

Where a name gives a salt, the structure may show the parent alone. Read-outs that look alike come from different tables or passages of the source.

Usually IC50 stands for the midpoint of a concentration-inhibition curve.

PLK1, sequence (P53350 whole entry): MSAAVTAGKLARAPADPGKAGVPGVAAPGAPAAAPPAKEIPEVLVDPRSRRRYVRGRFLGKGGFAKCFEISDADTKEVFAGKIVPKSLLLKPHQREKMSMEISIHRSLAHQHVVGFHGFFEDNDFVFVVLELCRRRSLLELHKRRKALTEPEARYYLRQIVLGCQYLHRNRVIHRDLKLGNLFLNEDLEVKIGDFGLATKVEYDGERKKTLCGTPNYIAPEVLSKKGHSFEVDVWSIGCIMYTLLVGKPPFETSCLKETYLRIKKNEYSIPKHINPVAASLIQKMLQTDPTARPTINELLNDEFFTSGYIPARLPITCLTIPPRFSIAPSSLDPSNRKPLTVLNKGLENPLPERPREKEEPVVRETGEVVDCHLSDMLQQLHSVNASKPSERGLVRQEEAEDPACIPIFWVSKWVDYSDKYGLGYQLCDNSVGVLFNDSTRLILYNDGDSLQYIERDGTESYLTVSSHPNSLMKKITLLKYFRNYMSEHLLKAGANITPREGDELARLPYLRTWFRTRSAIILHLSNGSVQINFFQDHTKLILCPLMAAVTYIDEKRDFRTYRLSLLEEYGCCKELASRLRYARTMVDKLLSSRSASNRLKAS

For the compound `COc1cc(Nc2ncc(F)c(Nc3ccc4c(n3)NC(=O)CO4)n2)cc(N2CCN(C)CC2)c1` [compound 3, 6-(5-fluoro-2-(3-methoxy-5-(4-methylpiperazin-1-yl)phenylamino)pyrimidin-4-ylamino)-2H-pyrido[3,2-b][1,4]oxazin-3(4H)-one], the IC50 under setting [1] was under 0.5 µM and the IC50 under setting [2] is under 10 µM. Taken in the same sequence, the figures for `CN1CCN(c2cccc(Nc3ncc(F)c(N(CC4CCC4)c4ccc5c(n4)NCCO5)n3)c2)CC1` [compound 4, N4-(cyclobutylmethyl)-N4-(3,4-dihydro-2H-pyrido[3,2-b][1,4]oxazin-6-yl)-5-fluoro-N2-(3-(4-methylpiperazin-1-yl)phenyl)pyrimidine-2,4-diamine] were 5 to 10 µM and under 10 µM. On to `COc1cc(Nc2ncc(F)c(Nc3ccc4c(n3)NCCO4)n2)cc(N2CCN(C)CC2)c1` [compound 5, N4-(3,4-dihydro-2H-pyrido[3,2-b][1,4]oxazin-6-yl)-5-fluoro-N2-(3-methoxy-5-(4-methylpiperazin-1-yl)phenyl)pyrimidine-2,4-diamine], for which the IC50 was under 0.5 µM under setting [1], under 0.01 µM under setting [3] and under 10 µM under setting [2]. On the same counts, the results for `CN1CCN(c2cccc(Nc3ncc(C(F)(F)F)c(Nc4ccc5c(n4)NC(=O)CO5)n3)c2)CC1` [compound 6, 6-(2-(3-(4-methylpiperazin-1-yl)phenylamino)-5-(trifluoro-methyl)pyrimidin-4-ylamino)-2H-pyrido[3,2-b][1,4]oxazin-3(4H)-one] are under 0.5 µM, under 0.01 µM and under 10 µM. Consider `CN1CCN(c2cccc(Nc3ncc(F)c(N(CC4CCCCC4)c4ccc5c(n4)NCCO5)n3)c2)CC1` [compound 7, N4-(cyclohexylmethyl)-N4-(3,4-dihydro-2H-pyrido[3,2-b][1,4]oxazin-6-yl)-5-fluoro-N2-(3-(4-methylpiperazin-1-yl)phenyl)pyrimidine-2,4-diamine], for which, under setting [1], the IC50 was at least 10 µM.

Take `CC(C)c1cc(Nc2ncc(F)c(Nc3ccc4c(n3)NC(=O)CO4)n2)ccc1N1CC2CC1CN2C` (stereo not drawn) [compound 8, 6-(5-fluoro-2-(3-isopropyl-4-(5-methyl-2,5-diazabicyclo[2.2.1]heptan-2-yl)phenylamino)pyrimidin-4-ylamino)-2H-pyrido[3,2-b][1,4]oxazin-3(4H)-one]: the IC50 under setting [1] is at least 10 µM. The same measure, in the same setting: the value for `CN1CCN(c2cccc(Nc3ncc(F)c(N(c4ccc5c(n4)NCCO5)C4CCCCC4)n3)c2)CC1` [compound 9, N4-cyclohexyl-N4-(3,4-dihydro-2H-pyrido[3,2-b][1,4]oxazin-6-yl)-5-fluoro-N2-(3-(4-methylpiperazin-1-yl)phenyl)pyrimidine-2,4-diamine] was at least 10 µM. On the same count and under the same terms, the value for `CC(C)c1cc(Nc2ncc(F)c(Nc3ccc4c(n3)NCCO4)n2)ccc1N1CC2CC1CN2C` (stereo not drawn) [compound 10, N4-(3,4-dihydro-2H-pyrido[3,2-b][1,4]oxazin-6-yl)-5-fluoro-N2-(3-isopropyl-4-(5-methyl-2,5-diazabicyclo[2.2.1]heptan-2-yl)phenyl)pyrimidine-2,4-diamine] was at least 10 µM. Take `COC(=O)c1cnc(Nc2cccc(N3CCN(C)CC3)c2)nc1Nc1ccc2c(n1)NCCO2` [compound 11, methyl 4-(3,4-dihydro-2H-pyrido[3,2-b][1,4]oxazin-6-ylamino)-2-(3-(4-methylpiperazin-1-yl)phenylamino)pyrimidine-5-carboxylate]: the IC50 under setting [1] is at least 10 µM.

Take `CN1CCN(c2cccc(Nc3ncc(C(=O)O)c(Nc4ccc5c(n4)NCCO5)n3)c2)CC1` [compound 12, 4-(3,4-dihydro-2H-pyrido[3,2-b][1,4]oxazin-6-ylamino)-2-(3-(4-methyl-piperazin-1-yl)phenyl-amino)pyrimidine-5-carboxylic acid]: the IC50 under setting [1] is at least 10 µM. Same read-out and setting: the value for `CN1CCN(c2cccc(Nc3nccc(Nc4ccc5c(n4)NC(=O)CO5)n3)c2)CC1` [compound 13, 6-(2-(3-(4-methylpiperazin-1-yl)phenylamino)pyrimidin-4-ylamino)-2H-pyrido[3,2-b][1,4]oxazin-3(4H)-one] was at least 10 µM; that for `CN1CCN(c2cc(Nc3ncc(F)c(Nc4ccc5c(n4)NC(=O)CO5)n3)cc(OCC3CCC3)c2)CC1` [compound 14, 6-(2-(3-(cyclobutylmethoxy)-5-(4-methylpiperazin-1-yl)phenylamino)-5-fluoropyrimidin-4-ylamino)-2H-pyrido[3,2-b][1,4]oxazin-3(4H)-one] was at least 10 µM. On to `CN1CCN(c2cccc(Nc3ncc(F)c(N(c4ccc5c(n4)NCCO5)C4CCC4)n3)c2)CC1` [compound 15, N4-cyclobutyl-N4-(3,4-dihydro-2H-pyrido[3,2-b][1,4]oxazin-6-yl)-5-fluoro-N2-(3-(4-methylpiperazin-1-yl)phenyl)pyrimidine-2,4-diamine], for which the IC50 was 0.5 to 5 µM under setting [1] and under 10 µM under setting [2]. Taken in the same sequence, the figures for `CN1CCN(c2cc(Nc3ncc(F)c(Nc4ccc5c(n4)NCCO5)n3)cc(OCC3CCC3)c2)CC1` [compound 16, N2-(3-(cyclobutylmethoxy)-5-(4-methylpiperazin-1-yl)phenyl)-N4-(3,4-dihydro-2H-pyrido[3,2-b][1,4]oxazin-6-yl)-5-fluoropyrimidine-2,4-diamine] were under 0.5 µM and under 10 µM. For `CN1CCN(c2cccc(Nc3ncc(F)c(Nc4ccc5c(n4)NC(=O)CO5)n3)c2)CC1` [compound 19, 6-(5-fluoro-2-(3-(4-methylpiperazin-1-yl)phenylamino)pyrimidin-4-ylamino)-2H-pyrido[3,2-b][1,4]oxazin-3(4H)-one hydrochloride], the IC50 under setting [3] was under 0.01 µM. As to `CN1CC2CC1CN2c1ccc(Nc2ncc(F)c(Nc3ccc4c(n3)NCCO4)n2)cc1C(F)(F)F` (stereo not drawn) [compound 57, N4-(3,4-dihydro-2H-pyrido[3,2-b][1,4]oxazin-6-yl)-5-fluoro-N2-(4-(5-methyl-2,5-diazabicyclo[2.2.1]heptan-2-yl)-3-(trifluoro-methyl)phenyl)pyrimidine-2,4-diamine], the IC50 under setting [1] was at least 10 µM. On to `Cc1cc(Nc2ncc(F)c(Nc3ccc4c(n3)N(CC3CC3)C(=O)CO4)n2)ccc1N1CCN(C)CC1` [compound 111, 4-(cyclopropylmethyl)-6-(5-fluoro-2-(3-methyl-4-(4-methylpiperazin-1-yl)phenylamino)pyrimidin-4-ylamino)-2H-pyrido[3,2-b][1,4]oxazin-3(4H)-one], for which the IC50 was 0.5 to 5 µM under setting [1] and under 10 µM under setting [2]. In the case of `CN1CCN(c2cccc(Nc3ncc(F)c(Nc4ccc5c(n4)NCCO5)n3)c2)CC1` [compound 168, N4-(3,4-dihydro-2H-pyrido[3,2-b][1,4]oxazin-6-yl)-5-fluoro-N2-(3-(4-methylpiperazin-1-yl)phenyl)pyrimidine-2,4-diamine p-toluene sulfonic acid salt], the IC50 under setting [3] is under 0.01 µM.

Source of the values: US9040527B2, “Pyrimidinediamine kinase inhibitors” (Rigel Pharmaceuticals, Inc., priority 2008, dated 2015).
